Among the data in patent US20100120789A1, “Compound” (priority 2005, published 2010) are inhibition values, retold here.

Structures are written as SMILES. A value given as a limit tells only on which side of the number the result lay.

Assay [1] has as its target T1, Human 11β-HSD1 (Homo sapiens, UniProt P28845). Description: 11β-HSD1 HEK assay (whole HEK 293 cells stably transfected with HSD11B1, SPA). It counts as cell-based. The arrangement: expressed in transfected cells; host or cells: HEK 293. Conditions: HEK293.
The target of assay [2] is T1, Human 11β-HSD1. Put plainly: 11β-HSD1 HTRF assay (human liver microsome fractions, cortisol by HTRF). It counts as biochemical. The conditions noted are these: 10 μM compound; human liver microsomes. The procedure: 11β-HSD1 HTRF Assay Protocol
The 11β-HSD Type 1 assay was carried out at room temperature in 96 well microtitre plates in a total volume of 40 μl. Assay buffer contained 30 mM Tris.HCl, 1 mM EDTA, pH 7.2. Inhibitor compounds were tested at varying concentrations at a final Dimethyl Sulphoxide concentration of 1%. Compounds were usually tested at 10 μM. The substrate mixture contained cortisone, NADPH and glucose-6-phosphate at final concentrations of 1 μM, 180 μM and 1 mM respectively. Assays were started by the addition of 10p1 human liver microsome fractions, 20 mg per ml protein, containing 11β-HSD Type 1, diluted 1 to 40 prior to use. Following mixing microtitre plates were shaken for 30 minutes. Reactions were stopped by the addition of 10 μl 1 mM Glyccheritinnic acid solution. Production of Cortisol was measured by Homogenous Time Resolved Fluorescence using a cortisol assay kit; Cisbio International Cortisol HTRF kit (62CORPEB), following the manufacturer's protocol.

Assay [3] concerns the target T1, Human 11β-HSD1. Description: 11β-HSD1 HEK assay (whole HEK 293 cells stably transfected with HSD11B1, SPA). It counts as cell-based. The conditions noted are these: HEK293, read-out: % INHIBITION of Human 11 β-HSD1 at 10 μM (HEK). Also noted: expressed in transfected cells; host or cells: HEK 293. The procedure:
11β-HSD1 HEK Assay Protocol (Cell Based Assay)
11β-HSD1 activity is measured in whole HEK 293 cells stably transfected with the HSD11B1 gene. Cells are incubated in 96-well microplates in the presence of tritiated substrate. Enzyme activity is determined by measuring the amount of tritated product by scintillation proximity assay (SPA). Assay plates contain internal high and low controls to allow calculation of percentage inhibition.
2. When the cells are 80% confluent the medium is removed from each well. 100 μl fresh, serum-free, medium containing ^3H-cortisone and test compound in 1% DMSO is added to each well*. Control wells are also dispensed.
3. The plate is incubated at […] for the required time period.
4. 50 μl of media is removed from each well and transferred to a microplate containing 100 μl of a pre-incubated mixture of anti-cortisol antibody and SPA bead. The mixture is incubated with gentle shaking until equilibrium is reached, before transferring to a scintillation counter to establish the enzyme activity in each sample.
10 μl of compound is dispensed into each well of a 96-well microplate in 10% DMSO at 100 μM concentration. 90 μl media containing ^3H-cortisone is added to each well. The compound/media/substrate mixture is then transferred to the assay plate containing the cells.

T1 sequence (P28845 whole entry): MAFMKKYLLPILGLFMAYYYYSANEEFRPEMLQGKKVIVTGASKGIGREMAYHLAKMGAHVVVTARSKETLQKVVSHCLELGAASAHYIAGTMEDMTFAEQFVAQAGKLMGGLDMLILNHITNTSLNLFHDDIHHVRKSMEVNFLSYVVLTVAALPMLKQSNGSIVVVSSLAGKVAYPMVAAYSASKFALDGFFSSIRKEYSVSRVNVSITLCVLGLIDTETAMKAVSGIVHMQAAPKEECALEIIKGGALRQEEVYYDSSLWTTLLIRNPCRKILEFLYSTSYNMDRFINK

As to `NC(=O)c1ccc(COCC(=O)C23CC4CC(CC(C4)C2)C3)cc1` [Compound 17], the inhibition at 1 µM against Human 11β-HSD1 [1] came out at 63%.
Consider `O=C(NCCc1ccccn1)C12CC3CC(CC(C3)C1)C2` [compound 1541], for which the inhibition at 10 µM against Human 11β-HSD1 [2] and at Human 11β-HSD1 [3] was more than 60% throughout.
`Cn1cccc1CNC(=O)C12CC3CC(CC(C3)C1)C2` [compound 1578]: the inhibition at 10 µM on Human 11β-HSD1 [2] and on Human 11β-HSD1 [3] was more than 60% each time.
In the case of `O=C(CC12CC3CC(CC(C3)C1)C2)NCc1cccs1` [compound 1564], the inhibition at 10 µM against Human 11β-HSD1 [2] and at Human 11β-HSD1 [3] was more than 60% in each case.
`O=C(NCc1ccco1)C12CC3CC(CC(C3)C1)C2` [compound 1579]: the inhibition at 10 µM on Human 11β-HSD1 [2] and at Human 11β-HSD1 [3] was more than 60% each time.
Turning to `Cc1nc2c(NC(=O)CC34CC5CC(CC(C5)C3)C4)c(C)ccc2s1` [compound 1572], the inhibition at 10 µM on Human 11β-HSD1 [2] was more than 60%; on Human 11β-HSD1 [3] it was less than 20%.
Regarding `O=C(C[S+]([O-])c1cc(Cl)ccc1Cl)C12CC3CC(CC(C3)C1)C2` (stereo not shown) [compound 1563], the inhibition at 10 µM on Human 11β-HSD1 [2] and on Human 11β-HSD1 [3] was more than 60% in each case.

For orientation: inhibition means the relative decrease from the control value, in per cent.
